How the values were obtained:
[1] = tested on: monocytes; test: Induction of IFN-regulated genes and TNFα in monocytes by aPL or Tlr7 agonist; type: cell-based, mouse
Protocol: (B) Induction of IFN-regulated genes by aPL. (C) TF and Tnfα mRNA induction by aPL HL5B or HL7G stimulation of CD115+ splenocytes of indicated mice stimulated for 3 hours, as well as early ROS production; mean±SD, n=6; * p<0.0001; one-way ANOVA, Dunnett multiple-comparison test. (D) Live cell imaging of HL5B internalization in monocytes of indicated mouse strains. Bar=5 μm. (E) Live cell imaging of aPL HL5B Fab′2 or IgG colocalization with EPCR using non-inhibitory αEPCR 1489 in human MM1 cells. (F) Internalization of EPCR, FVIIa, and TF in MM1 cells stimulated for 15 minutes similarly required proteases and integrin trafficking. For quantification of internalization, surface staining was quenched with 0.4% trypan blue; mean±SD, n=6. * p<0.0001; one-way ANOVA, Dunnett multiple-comparison test compared to IgG control.
FXa generated by the coagulation initiator TF-FVIIa utilizes the endothelial protein C receptor (EPCR) for protease activated receptor (PAR) 2 cleavage that is specifically required for LPS-induced interferon (IFN) responses (15, 16).

[2] = tested on: MM1 cells; test: aPL signaling and internalization in MM1 cells with sphingomyelinase inhibitor; type: cell-based, human
Protocol: (A) aPL-mediated TF activation, PS exposure measured by annexin 5 staining, ROS production and TNFα induction as well as (B) aPL internalization in MM1 cells was blocked by sphingomyelinase inhibitor desipramine. Bar=5 μm. (C) aPL-induced ASM activity in MM1 cells is blocked by inhibitors of FXa, thrombin, and PAR1 cleavage. (D) Live cell imaging of surface ASM exposure in MM1 cells after 30 minutes of stimulation with Fab′2 aPL HLSB. Bar=5 μm. (E) ASM activity in unstimulated cell lysates after addition of sEPCR-LBPA (2.504) is blocked by αEPCR 1682. For all ASM activity assays: mean±SD, n=3. * p<0.0003; one-way ANOVA, Dunnett multiple-comparison test. […] (G, H) Thrombosis induction by dual reactive aPL HL7G in the indicated mouse strains or WT mice in presence of indicated αEPCR. (F-H) Quantification of thrombus size 3 hours after aPL injection; median, interquartile range, and range; n=6-11; * p <0.004; one-way ANOVA, Dunnett multiple-comparison test compared to αEPCR 1650. (I, J) Thrombosis induction by aPL HLSB (I) or IgG isolated from age-matched 16 weeks old lupus-prone MRL/lpr and MRL control mice (J) in the indicated mouse strains. Quantification of thrombus size 3 hours after aPL injection; median, interquartile range, and range; (I) n=6-10; * p=0.001; unpaired t-test. (J) n=5; * p=0.0025; two-way ANOVA, Sidak's multiple comparisons test. […]

[3] = tested on: ALIX^−/− trophoblast cells; test: aPL HL5B binding to ALIX-deficient trophoblast (JAR) cells after adding phospholipids; type: cell-based, human; settings: 10 μM lipid added
Protocol: (§1) (A) TNFα mRNA induction after 2 hours by HLSB is prevented in Alix-deficient trophoblast cells; mean±SD, n=6. * p<0.0001; t-test following Shapiro-Wilk test for normal distribution. (B, C) Proximity ligation assays (PLA) for ASM and EPCR on scrambled control JARs or ALIX−/− cells after 10 minutes of stimulation with HLSB (B) or thrombin (C) with or without LBPA loading. Bar=25 μm. (D) aPL internalization in ALIX deficient JAR cells and signalling in EPCR^C/S monocytes (E) was restored by adding 10 μM LBPA (S,R) but not by other phospholipids. (F) Pregnancy loss was scored at day 15.5 p.c. after injection of aPL HLSB on days 8 and 12. * p<0.02; one-way ANOVA, Dunnett multiple-comparison test. (G) Schematic representation of aPL signalling leading to thrombosis or pregnancy complications.
Human ALIX^−/− trophoblast cells and murine EPCR^C/S monocytes provided tools to compare the species conservation of lipid presentation by EPCR. Only addition of S/R 18:1 LBPA and R/R 18:1 LBPA, but not S/S 18:1 LBPA or semi-S/R LBPA restored aPL HL5B binding to ALIX^−/− trophoblast cells (FIG. 7D) or signaling in EPCR^C/S monocytes (FIG. 7E). Thus, human and mouse EPCR present LBPA with the same selectivity, providing an explanation for the remarkable species cross-reactivity of pathogenic aPL.

[4] = tested on: EPCR^C/S monocytes; test: Lipid supplementation and aPL signalling in EPCR^C/S monocytes; type: cell-based, mouse; settings: for aPL signaling in EPCR^C/S monocytes after adding LBPA isomers: 10 μM
Excerpt: (§2) (A) Effect of aPL HL5B, aPL HL7G, and αEPCR antibodies on EPCR-dependent aPC generation on murine microvascular endothelial cells. (B) Effect of anti-mouse EPCR antibodies 1682 and 1650 on Tnfα mRNA induction by aPL HL5B and HL7G; mean±SD, n=6. * p<0.0001; one-way ANOVA, Dunnett multiple-comparison. (C) Effect of αEPCR on aPL HL5B and HL7G internalization in CD115+ splenocytes. Bar=5 μm. (D) Flow cytometry detection of FXa and EPCR on CD115+ spleen monocytes isolated from indicated mouse strains. (E) Effect of pre-treatment with 10 μM LBPA for 10 min on surface binding of αEPCR 1682 and αLBPA 6C4 on indicated monocytes; mean±SD, n=6. * p<0.003; multiple t-tests. (F) Competition of αEPCR 1650 and 1682 with binding of FITC-labelled anti-LBPA antibody 6C4 to mouse CD115+ splenocytes. (G) Competition of αLBPA 6C4 with binding of αEPCR 1682 to mouse monocytes. (H) Effect of LBPA, cardiolipin (CL), and phosphatidylserine (PS) (10 μM) on aPL HLSB signalling in EPCR^C/S monocytes. Induction of TNF after 3 hours is shown; mean±SD, n=6. (I) LBPA loading of purified mouse or human sEPCR evidenced by faster mobility on native gels. (J) Surface plasmon resonance analysis of aPL HLSB binding to purified human sEPCR or sEPCR-LBPA. The affinity calculation was based on a monovalent binding model because no cooperative binding was evident.
as §1, with “(G) Schematic representation of aPL signalling leading to thrombosis or pregnancy complications.” left out

[5] = tested on: EPCR^C/S pDC; test: Mouse pDC and B cell co-culture with R848 and aPL HL5B, anti-cardiolipin titers; type: cell-based; settings: co-cultures with EPCR^C/S pDC
Protocol: (§3) (A) Gbp2 mRNA induction after 1 hour stimulation with HL5B, HL7G, or LPS (100 ng/ml) in EPCR^C/S or WT monocytes with or without addition of LBPA. (B) WT monocytes were stimulated for 1 hour with IgG isolated from MRL/lpr lupus-prone or control MRL mice in the presence of the indicated antibodies to EPCR. (C) Human monocyte-derived DC were co-cultured with B cells in the presence of TLR7/8 agonist R848 and aPL HL5B with the indicated antibodies to human EPCR. Anti-cardiolipin titers were determined after 10 days. (D-F) Co-cultures of isolated spleen plasmacytoid dendritic cells (pDC) and B cells from the indicated mouse strains were co-cultured with Tlr7 agonist R848 and aPL HL5B for 10 days, followed by determination of anti-cardiolipin titers. IFNR^−/−, type I interferon receptor deficient mice.
Supporting this conclusion, anti-cardiolipin antibody production was absent when mouse pDC, but not B cells, were isolated from EPCR^C/S mice (FIG. 9D). Addition of LBPA or interferon a restored the expansion of anti-cardiolipin producing B cells in co-cultures with aPL signaling-deficient EPCR^C/S pDC (FIG. 9D). In contrast, cells deficient in LRP8, the receptor for β2GPI, produced anti-cardiolipin antibodies normally in response to co-stimulation of aPL and Tlr7 agonist (FIG. 9E).

[6] = tested on: EPCR^C/S monocytes; test: Gbp2 mRNA induction by aPL in EPCR^C/S monocytes; type: cell-based, mouse; settings: 1 hour stimulation with aPL
Protocol: as §3
Further, it was investigated whether the identified target for lipid-reactive aPL contributes to the development of autoimmunity. Upregulation of interferon responses in circulating immune cells are linked to the development of APS (38, 39). […] In addition, IgG isolated from MRL/lpr lupus erythematosus mice, but not MRL control mice induced interferon responses dependent on EPCR-LPBA in monocytes (FIG. 9B).

[7] = tested on: human trophoblast cells; test: TNFα mRNA induction by HLSB in ALIX knock-down trophoblast cells; type: cell-based; settings: extracellular LBPA supplemented
Protocol: as §1
The importance of this pathway in human trophoblast cells by knock-down of ALIX (FIG. 8A) was evaluated, which is required for normal lysosomal functioning. ALIX knock-down diminished LBPA cell surface presentation, but not EPCR expression (FIG. 8B) and abolished aPL-induced, but not TNFα-induced proinflammatory effects.

[8] = molecular target: T1, LBPA-loaded EPCR (Mus musculus, UniProt Q64695, C242S); test: Flow cytometry surface staining of monocytes with αEPCR 1682 and αLBPA 6C4; type: binding; settings: LBPA added to culture medium, 10 μM, 10 min
T1 construct: endogenous in cells; host or cells: mouse CD115+ spleen monocytes; murine microvascular endothelial cells
T1 sequence (Q64695 18-242 C242S): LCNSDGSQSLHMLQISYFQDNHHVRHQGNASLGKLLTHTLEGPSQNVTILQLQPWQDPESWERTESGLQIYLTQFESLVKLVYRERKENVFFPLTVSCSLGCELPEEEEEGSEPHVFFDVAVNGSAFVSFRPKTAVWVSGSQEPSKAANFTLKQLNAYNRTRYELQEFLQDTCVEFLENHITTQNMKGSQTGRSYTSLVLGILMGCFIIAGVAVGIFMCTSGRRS
Excerpt: as §2, with “evident. […]” for “evident.”

[9] = tested on: acidic sphingomyelinase (ASM); test: ASM activity in CD115+ spleen monocytes stimulated with aPL HLSB; type: cell-based, mouse; settings: EPCR^C/S monocytes, LBPA 10 μM
Protocol: (A) WT CD115+ spleen monocyte induction of ASM activity after 15 minutes aPL HLSB stimulation with the indicated inhibitors. (B) LBPA (10 μM) loading of EPCR^C/S cells enabled ASM activation in CD115+ monocytes stimulated with HLSB.
ASM requires LBPA for activity (33). […] Thrombin stimulation to induce ASM surface expression was sufficient to trigger ASM activation that was blocked by extracellular addition of αEPCR-LBPA 1682 (FIG. 6C). TfpiΔK1 cells expressed LBPA-loaded EPCR (FIG. 3D), but lack surface FXa to trigger thrombin generation. […] In turn, ASM modification of surface lipid modification is required for endosomal trafficking and signaling of EPCR-bound aPL.

[10] = tested on: acidic sphingomyelinase (ASM); test: ASM activity in unstimulated cell lysates after addition of sEPCR-LBPA; type: biochemical
Protocol: (A) aPL-mediated TF activation, PS exposure measured by annexin 5 staining, ROS production and TNFα induction as well as (B) aPL internalization in MM1 cells was blocked by sphingomyelinase inhibitor desipramine. Bar=5 μm. (C) aPL-induced ASM activity in MM1 cells is blocked by inhibitors of FXa, thrombin, and PAR1 cleavage. (D) Live cell imaging of surface ASM exposure in MM1 cells after 30 minutes of stimulation with Fab′2 aPL HLSB. Bar=5 μm. (E) ASM activity in unstimulated cell lysates after addition of sEPCR-LBPA (2.504) is blocked by αEPCR 1682. For all ASM activity assays: mean±SD, n=3. * p<0.0003; one-way ANOVA, Dunnett multiple-comparison test. […] (G, H) Thrombosis induction by dual reactive aPL HL7G in the indicated mouse strains or WT mice in presence of indicated αEPCR. (F-H) Quantification of thrombus size 3 hours after aPL injection; median, interquartile range, and range; n=6-11; * p <0.004; one-way ANOVA, Dunnett multiple-comparison test compared to αEPCR 1650. (I, J) Thrombosis induction by aPL HLSB (I) or IgG isolated from age-matched 16 weeks old lupus-prone MRL/lpr and MRL control mice (J) in the indicated mouse strains. Quantification of thrombus size 3 hours after aPL injection; median, interquartile range, and range; (I) n=6-10; * p=0.001; unpaired t-test. (J) n=5; * p=0.0025; two-way ANOVA, Sidak's multiple comparisons test.
ASM requires LBPA for activity (33). […]

With CCOCc1nc2c(N)nc3ccccc3c2n1CC(C)(C)O [R848] the “induction of TNFα” value [1] was “upregulated only TNFα”.

In the case of CNCCCN1c2ccccc2CCc2ccccc21 [desipramine], the aPL internalization [2] is reported as “blocked” and the “aPL-mediated TF activation, PS exposure, ROS production and TNFα induction” value [2] is reported as “blocked”.

With R/R 18:1 LBPA the “aPL HL5B binding to ALIX^−/− trophoblast cells” value [3] was “restored” and the “aPL signaling in EPCR^C/S monocytes after adding LBPA isomers” value [4] was “restored”.

With S/R 18:1 LBPA the “aPL HL5B binding to ALIX^−/− trophoblast cells” value [3] was “restored” and the “aPL signaling in EPCR^C/S monocytes after adding LBPA isomers” value [4] was “restored”.

With interferon a the “expansion of anti-cardiolipin producing B cells” value [5] was “restored”.

With lysobisphosphatidic acid [LBPA] the “interferon responses (GBP2) in EPCR^C/S monocytes” value [6] was “restored interferon responses”, the “aPL signaling in ALIX knock-down trophoblast cells” value [7] was “restored aPL signaling” and the “expansion of anti-cardiolipin producing B cells” value [5] was “restored”. The “cell surface αLBPA 6C4 and αEPCR 1682 staining of EPCR^C/S cells” value [8] was “restored”, the “ASM activation by aPL after extracellular addition of LBPA” value [9] was “restored ASM activation” and the “aPL pro-inflammatory signaling of EPCR^C/S cells after lipid supplementation” value ([4]; 10 μM lipid, TNF induction after 3 hours) was “restored aPL pro-inflammatory signaling”.

B1: EPCR-LBPA: purified soluble EPCR loaded with LBPA by lipid exchange (protein, UniProt Q9UNN8 18-210, looked up)
extracellular domain: SQDASDGLQRLHMLQISYFRDPYHVWYQGNASLGGHLTHVLEGPDTNTTIIQLQPLQEPESWARTQSGLQSYLLQFHGLVRLVHQERTLAFPLTIRCFLGCELPPEGSRAHVFFEVAVNGSSFVSFRPERALWQADTQVTSGVVTFTLQQLNAYNRTRYELREFLEDTCVQYVQKHISAENTKGSQTSRSYTS
modifications: extracellular domain loaded with LBPA lipid
notes: purified soluble EPCR loaded with LBPA by lipid exchange
In the case of B1, the “induction of ASM activity in cell lysates of unstimulated cells” value [10] is reported as “efficiently induced ASM activity”.

Reference: patent publication US20230043394A1, “METHODS FOR DETECTION OF PATHOGENIC ANTIPHOSPHOLIPID ANTIBODIES AND FOR IDENTIFICATION OF INHIBITORS” (UNIVERSITÄTSMEDIZIN DER JOHANNES GUTENBERG-UNIVERSITÄT MAINZ, priority 2019, published 2023)
